From PMC8376931, “Structure activity relationships and the binding mode of quinolinone-pyrimidine hybrids as reversal agents of multidrug resistance mediated by P-gp” (Scientific Reports, 2021)
Where two headings read alike, the source gives them in different places.

Legend:
[1] = target: T1, P-gp (Homo sapiens, UniProt P08183); conditions: 1 h
Description: (§1) The intracellular accumulation of the fluorescent probes, Dox and Rho123, was determined by monitoring its fluorescence intensity using flow cytometry (96-well plate format), as previously reported. The inhibition on the outward transport of these P-gp substrates results in an increased […] fluorescence intensity (MFI). […] Those compounds showing inhibition on P-gp at the maximum tested concentration were further evaluated at serial dilutions to determinate their MECs. […] The plates were then incubated in a 5% CO2 incubator for 1 h at 37 °C. Afterwards, 5 μM Dox was added to each well. The other fluorescent specific substrate of P-gp, Rho123, however, was added at 500 ng/mL to additionally measure the ability of the most promising compounds to block its efflux. Subsequently, cells from both assays were washed twice with cold PBS, and 15,000 events from each sample were analyzed to determine the cell-associated fluorescence. Dead cells were eliminated by means of forward- and side-scatter parameters. […] The blocking of the P-gp transport function was evaluated by the parameter FIR, calculated as the ratio of the MFI of Dox or Rho123 with the addition of the likely inhibitor to the MFI of Dox or Rho123 alone.

[2] = tested on: K562 cells; experiment: Doxorubicin intracellular accumulation assay (flow cytometry) in K562; type: cell-based; parameters: key: MFI with inhibitor / MFI of Dox alone; conditions: 5 μM Dox
Description: as §1

[3] = tested on: SphK1; conditions: previously found; cited from earlier work
[4] = tested on: SphK2; conditions: previously found; cited from earlier work
[5] = MTT cytotoxicity assay in K562; type: cell-based; conditions: human, K562 cells, read-out: IC50 (cytotoxicity) against K562
Description: (§2) Then 0.5 mg/mL MTT in PBS was added. After additional incubation for 4 h, the formazan crystals obtained were dissolved in DMSO and the absorbance at 595 nm was read on an iMark micro-plate reader (Bio-Rad, USA). IC50 values for cytotoxicity were then calculated as reported[50] using nonlinear regression by GraphPad Prism 7 (Graphpad Software, Inc., San Diego, CA, USA, www.graphpad.com).
(§3) The cells were incubated at 37 °C at 5% CO2 for 48 h and the same protocol described above was followed. IC50 values of Dox were then obtained.

[6] = MTT cytotoxicity assay in Lucena 1; type: cell-based; conditions: human, Lucena 1 cells, read-out: IC50 (cytotoxicity) against Lucena 1
Description: as §2, §3

[7] = target: T1, P-gp
Description: The intracellular accumulation of the fluorescent probes, Dox and Rho123, was determined by monitoring its fluorescence intensity using flow cytometry (96-well plate format), as previously reported. The inhibition on the outward transport of these P-gp substrates results in an increased […] fluorescence intensity (MFI). […] The plates were then incubated in a 5% CO2 incubator for 1 h at 37 °C. Afterwards, 5 μM Dox was added to each well. The other fluorescent specific substrate of P-gp, Rho123, however, was added at 500 ng/mL to additionally measure the ability of the most promising compounds to block its efflux. Subsequently, cells from both assays were washed twice with cold PBS, and 15,000 events from each sample were analyzed to determine the cell-associated fluorescence. Dead cells were eliminated by means of forward- and side-scatter parameters. […] The blocking of the P-gp transport function was evaluated by the parameter FIR, calculated as the ratio of the MFI of Dox or Rho123 with the addition of the likely inhibitor to the MFI of Dox or Rho123 alone.

T1 sequence (P08183 whole entry): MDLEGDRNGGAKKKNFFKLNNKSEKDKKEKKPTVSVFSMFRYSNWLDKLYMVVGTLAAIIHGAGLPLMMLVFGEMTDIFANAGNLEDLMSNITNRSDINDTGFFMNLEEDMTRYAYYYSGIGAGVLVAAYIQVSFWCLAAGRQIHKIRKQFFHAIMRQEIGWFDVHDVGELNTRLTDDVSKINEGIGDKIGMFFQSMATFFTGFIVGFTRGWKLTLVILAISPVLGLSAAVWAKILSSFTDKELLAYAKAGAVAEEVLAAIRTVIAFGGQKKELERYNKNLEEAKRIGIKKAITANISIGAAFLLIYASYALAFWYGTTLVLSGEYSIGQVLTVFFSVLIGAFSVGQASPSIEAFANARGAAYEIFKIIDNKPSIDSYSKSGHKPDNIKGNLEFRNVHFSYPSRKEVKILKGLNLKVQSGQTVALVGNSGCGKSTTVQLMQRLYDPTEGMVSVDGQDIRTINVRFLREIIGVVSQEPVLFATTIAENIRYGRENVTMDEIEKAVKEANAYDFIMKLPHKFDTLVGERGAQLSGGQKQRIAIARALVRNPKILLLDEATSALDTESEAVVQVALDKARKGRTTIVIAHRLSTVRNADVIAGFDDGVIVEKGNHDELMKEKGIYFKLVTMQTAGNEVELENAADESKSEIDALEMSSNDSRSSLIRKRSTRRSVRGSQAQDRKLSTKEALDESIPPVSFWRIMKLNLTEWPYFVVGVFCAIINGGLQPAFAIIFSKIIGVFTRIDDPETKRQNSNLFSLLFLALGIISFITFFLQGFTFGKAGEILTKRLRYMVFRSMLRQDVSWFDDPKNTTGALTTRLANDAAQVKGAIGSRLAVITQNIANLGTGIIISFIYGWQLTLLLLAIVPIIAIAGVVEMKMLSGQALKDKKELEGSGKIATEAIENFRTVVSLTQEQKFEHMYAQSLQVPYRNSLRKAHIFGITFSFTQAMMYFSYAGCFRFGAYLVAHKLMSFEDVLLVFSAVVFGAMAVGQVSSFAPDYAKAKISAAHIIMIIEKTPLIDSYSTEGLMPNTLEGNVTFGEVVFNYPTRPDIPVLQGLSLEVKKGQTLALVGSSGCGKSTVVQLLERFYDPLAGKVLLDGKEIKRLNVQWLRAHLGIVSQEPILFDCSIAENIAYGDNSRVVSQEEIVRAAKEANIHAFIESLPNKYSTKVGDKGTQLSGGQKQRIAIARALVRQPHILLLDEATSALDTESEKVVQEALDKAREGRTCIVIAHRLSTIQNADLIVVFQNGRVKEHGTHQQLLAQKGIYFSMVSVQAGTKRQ

| SMILES | minimum effective concentration (MEC), Dox accumulation [1] | FIR Lucena 1 ([1]; 0.31 µM) | FIR Lucena 1 ([1]; 0.62 µM) | FIR Lucena 1 ([1]; 1.25 µM) | FIR Lucena 1 ([1]; 2.5 µM) | FIR Lucena 1 ([1]; 5 µM) | FIR Lucena 1 ([1]; 10 µM) | FIR Lucena 1 ([1]; 20 µM) | FIR K562 ([2]; compound 20 µM) | IC50 against SphK1 [3] | IC50 against SphK2 [4] | FIR K562 ([2]; compound 5 µM) | FIR K562 ([2]; compound 10 µM) | IC50 at 48 h [5] | IC50 at 48 h [6] | Rho123 fluorescence intensity, fold lower in Lucena 1 with respect to K562 [7] |
| --- | --- | --- | --- | --- | --- | --- | --- | --- | --- | --- | --- | --- | --- | --- | --- | --- |
| COc1ccc2[nH]c(=O)c(CNc3ccc(Nc4nccc(-c5ccc6ccccc6c5)n4)cc3)cc2c1 [Compound 5b] | 0.62 µM | 1.07 ± 0.03 | 1.16 ± 0.07 | 1.21 ± 0.07 | 1.29 ± 0.08 | 1.31 ± 0.08 | 1.25 ± 0.07 | 1.36 ± 0.08 | 0.96 ± 0.02 | – | – | – | – | – | – | – |
| COc1ccc2[nH]c(=O)c(CNc3ccc(Nc4nccc(-c5ccc(Cl)cc5)n4)cc3)cc2c1 [Compound 4b] | 2.5 µM | – | – | 1.10 ± 0.13 | 1.20 ± 0.06 | 1.20 ± 0.06 | 1.23 ± 0.08 | 1.29 ± 0.08 | 0.90 ± 0.03 | – | – | – | – | – | – | – |
| O=c1[nH]c2ccccc2cc1CNc1ccc(Nc2nccc(-c3ccc4ccccc4c3)n2)cc1 [Compound 5a] | 2.50 µM | – | – | 0.95 ± 0.05 | 1.05 ± 0.01 | 1.06 ± 0.01 | 1.10 ± 0.02 | 1.24 ± 0.07 | 0.86 ± 0.02 | – | – | – | – | – | – | – |
| COc1ccc2[nH]c(=O)c(CN3CCN(c4nccc(-c5ccc(Cl)cc5)n4)CC3)cc2c1 [Compound 6b] | 2.5 µM | – | – | 1.01 ± 0.03 | 1.15 ± 0.05 | 1.32 ± 0.09 | 1.44 ± 0.13 | 1.55 ± 0.07 | 0.94 ± 0.10 | – | – | – | – | – | – | – |
| COc1cc2cc(CN3CCN(c4nccc(-c5ccc(Cl)cc5)n4)CC3)c(=O)[nH]c2cc1OC [Compound 6c] | 0.62 µM | 1.00 ± 0.01 | 1.11 ± 0.03 | 1.19 ± 0.07 | 1.32 ± 0.08 | 1.32 ± 0.09 | 1.49 ± 0.20 | 1.68 ± 0.12 | 0.79 ± 0.007 | no activity | no activity | – | – | – | – | – |
| NCCN1CCN(c2nccc(-c3ccc4ccccc4c3)n2)CC1 [Compound 10a] | 1.25 µM | – | 1.04 ± 0.03 | 1.13 ± 0.03 | 1.21 ± 0.02 | 1.30 ± 0.08 | 1.63 ± 0.17 | 2.36 ± 0.25 | 1.26 ± 0.06 | – | – | 0.98 ± 0.01 | 1.13 ± 0.02 | 17.7 ± 0.15 µM | 17.1 ± 0.95 µM | – |
| COc1cc2cc(CNc3ccc(Nc4nccc(-c5ccc(Cl)cc5)n4)cc3)c(=O)[nH]c2cc1OC [Compound 4c] | 0.62 µM | 1.03 ± 0.01 | 1.11 ± 0.03 | 1.24 ± 0.08 | 1.31 ± 0.11 | 1.32 ± 0.09 | 1.28 ± 0.07 | 1.39 ± 0.07 | 0.93 ± 0.02 | – | – | – | – | – | – | – |
| c1ccc2cc(-c3ccnc(N4CCNCC4)n3)ccc2c1 [Compound 7] | – | – | – | – | 1.07 ± 0.10 | 1.19 ± 0.05 | 1.42 ± 0.02 | 2.23 ± 0.26 | 1.20 ± 0.06 | – | – | – | 1.10 ± 0.08 | – | 17.9 ± 0.55 µM | – |
| O=c1[nH]c2ccccc2cc1CNc1ccc(Nc2nccc(-c3ccc(Cl)cc3)n2)cc1 [Compound 4a] | 20 µM | – | – | – | – | – | 1.03 ± 0.01 | 1.21 ± 0.04 | 0.89 ± 0.03 | – | – | – | – | – | – | – |
| O=c1[nH]c2ccccc2cc1CN1CCN(c2nccc(-c3ccc4ccccc4c3)n2)CC1 [Compound 7a] | 1.25 µM | – | 0.95 ± 0.02 | 1.10 ± 0.03 | 1.28 ± 0.12 | 1.38 ± 0.11 | 1.52 ± 0.17 | 1.33 ± 0.11 | 1.02 ± 0.07 | – | – | – | – | – | – | – |
| Clc1ccc(-c2ccnc(N3CCNCC3)n2)cc1 [Compound 6] | – | – | – | 1.09 ± 0.06 | 1.18 ± 0.04 | 1.18 ± 0.03 | 1.38 ± 0.08 | 1.65 ± 0.12 | 1.20 ± 0.02 | – | – | 1.09 ± 0.04 | 1.19 ± 0.02 | – | – | – |
| O=c1[nH]c2ccccc2cc1CN1CCN(c2nccc(-c3ccc(Cl)cc3)n2)CC1 [Compound 6a] | 5 µM | – | – | – | 1.06 ± 0.04 | 1.15 ± 0.05 | 1.30 ± 0.05 | 1.40 ± 0.05 | 0.92 ± 0.04 | – | – | – | – | – | – | – |
| COC(=O)c1ccccc1-c1c2ccc(=N)cc-2oc2cc(N)ccc12 [Rhodamine 123, reference compound] | – | – | – | – | – | – | – | – | – | – | – | – | – | – | – | 5.87 fold |
| COc1cccc2c1C(=O)c1c(O)c3c(c(O)c1C2=O)C[C@@](O)(C(=O)CO)C[C@@H]3O[C@H]1C[C@H](N)[C@H](O)[C@H](C)O1 [doxorubicin, reference compound] | – | – | – | – | – | – | – | – | – | – | – | – | – | 0.64 ± 0.13 µM | 23 ± 5.41 µM | – |
| COc1cc2cc(CN3CCN(c4nccc(-c5ccc6ccccc6c5)n4)CC3)c(=O)[nH]c2cc1OC [Compound 7c] | 0.62 µM | 1.08 ± 0.05 | 1.22 ± 0.07 | 1.24 ± 0.05 | 1.23 ± 0.02 | 1.27 ± 0.04 | 1.29 ± 0.11 | 1.45 ± 0.10 | 1.04 ± 0.03 | – | – | – | – | 6.7 ± 0.2 µM | 10.2 ± 0.23 µM | – |
| NCCN1CCN(c2nccc(-c3ccc(Cl)cc3)n2)CC1 [Compound 10] | 1.25 µM | – | 1.06 ± 0.04 | 1.11 ± 0.03 | 1.26 ± 0.04 | 1.41 ± 0.09 | 1.30 ± 0.05 | 1.72 ± 0.14 | 1.18 ± 0.03 | – | – | – | 0.98 ± 0.06 | – | – | – |
| CC(=O)c1ccc(Nc2nccc(-c3ccc4ccccc4c3)n2)cc1 [Compound 3] | 10 µM | – | – | – | – | 1.06 ± 0.05 | 1.24 ± 0.02 | 1.70 ± 0.22 | 0.98 ± 0.07 | – | – | – | – | – | – | – |
| COc1cc2cc(COc3nccc(-c4ccc(Cl)cc4)n3)c(=O)[nH]c2cc1OC [Compound 11] | 1.25 µM | – | 1.02 ± 0.02 | 1.14 ± 0.02 | 1.23 ± 0.04 | 1.38 ± 0.07 | 1.30 ± 0.07 | 2.87 ± 0.55 | 1.44 ± 0.03 | – | – | – | 1.01 ± 0.02 | 3.8 ± 0.1 µM | 10.7 ± 0.15 µM | – |
| COc1ccc(CCN(C)CCCC(C#N)(c2ccc(OC)c(OC)c2)C(C)C)cc1OC (stereo not drawn) [verapamil, reference compound] | – | – | – | – | – | – | – | – | 1.08 ± 0.05 | – | – | – | – | – | – | – |
